The text below walks through data of patent US20040115710A1, “Method for assaying compounds that decrease the activity of poly (ADP-ribose)-Polymerase (PARP)” (Aventis Pharmaceuticals Inc., priority 2002, published 2004).

The target in assay [1] is T1, Poly(ADP-Ribose)-Polymerase enzyme (PARP) (Homo sapiens, UniProt P09874).
T1 construct: IC50
Briefly: Fluorescence polarization PARP inhibition assay (Texas Red-labeled NAD+ tracer, histone, DNA). The assay is classed as biochemical. The settings on record: known inhibitor of PARP used as control compound; inhibition curve in FIG. 3. From the text:
(§1) The transfer of Texas Red-ADP ribose to protein substrates (histone and PARP itself) can be monitored through the rotational speed of the fluorescence tracer by the fluorescence polarization method. The assay measures the ability of the test compounds to inhibit the enzyme to transfer fluorescence labeled ADP to protein substrates.
(§2) A PARP baculovirus which encodes the amino acid sequence of FIG. 6 (SEQ ID NO: 1), was used to infect sf(9) cells. After PARP was expressed, it was partially purified by 40-70% ammonia sulfate cuts, and then re-suspended in TRIS buffer containing 25% (v/v) glycerol. […]
(§3) After incubation, this mixture and the control mixture were illuminated with plane polarized light having a wavelength of 590 nm, and the fluorescence polarization of the mixture and the control mixture were measured using a fluorescence filter set with an excitation wavelength of 590 nm, and an emission wavelength of 620 nm. The measurements were made with a fluorescence polarization plate reader in fluorescence polarization (FP) mode. These two measurements were then compared to determine whether the fluorescence polarization measurement of the mixture containing the compound or agent is less than that of the control. […]

The target of assay [2] is Poly(ADP-Ribose)-Polymerase enzyme (PARP) (Homo sapiens, UniProt P09874, E70Q). The assay is described as above. Type of assay: biochemical. The settings on record: standard (control) inhibitor of PARP, value given in materials table.
Chain of Poly(ADP-Ribose)-Polymerase enzyme (PARP) (Homo sapiens, UniProt P09874, E70Q) (P09874 whole entry E70Q): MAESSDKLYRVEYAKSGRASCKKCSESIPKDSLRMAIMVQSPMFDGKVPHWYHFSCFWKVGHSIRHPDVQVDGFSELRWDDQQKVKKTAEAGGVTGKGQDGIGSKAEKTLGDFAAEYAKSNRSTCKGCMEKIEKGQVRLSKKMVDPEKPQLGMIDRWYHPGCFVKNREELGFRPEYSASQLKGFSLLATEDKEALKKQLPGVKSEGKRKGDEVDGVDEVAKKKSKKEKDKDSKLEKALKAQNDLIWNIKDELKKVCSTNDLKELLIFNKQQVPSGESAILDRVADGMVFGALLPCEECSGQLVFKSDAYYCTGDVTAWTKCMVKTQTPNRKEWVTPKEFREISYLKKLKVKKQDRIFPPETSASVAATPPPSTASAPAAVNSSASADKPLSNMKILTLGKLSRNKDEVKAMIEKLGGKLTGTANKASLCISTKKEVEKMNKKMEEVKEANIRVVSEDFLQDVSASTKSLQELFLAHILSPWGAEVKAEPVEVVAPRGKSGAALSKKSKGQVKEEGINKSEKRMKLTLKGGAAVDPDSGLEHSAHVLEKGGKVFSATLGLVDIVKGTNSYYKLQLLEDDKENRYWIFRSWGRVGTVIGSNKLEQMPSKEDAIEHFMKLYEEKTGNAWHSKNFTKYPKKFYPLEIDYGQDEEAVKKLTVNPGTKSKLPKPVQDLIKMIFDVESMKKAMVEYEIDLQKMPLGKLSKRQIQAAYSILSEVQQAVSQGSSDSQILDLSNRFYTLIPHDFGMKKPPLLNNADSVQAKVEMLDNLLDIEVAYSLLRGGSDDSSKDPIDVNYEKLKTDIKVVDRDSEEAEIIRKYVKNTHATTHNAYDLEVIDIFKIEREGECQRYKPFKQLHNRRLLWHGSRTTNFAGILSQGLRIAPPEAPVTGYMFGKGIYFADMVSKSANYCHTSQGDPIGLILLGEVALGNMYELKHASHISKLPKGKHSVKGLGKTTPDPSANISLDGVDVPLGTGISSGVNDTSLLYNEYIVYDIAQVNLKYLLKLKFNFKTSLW
Text: as §1, §2, §3

T1 sequence (P09874 whole entry): as the sequence (P09874 whole entry E70Q) above, with Q70E counted along it

The IC50 is the concentration needed to halve the response being measured. High values mean weaker potency in that assay, low ones greater potency in that assay. As to `Oc1cccc2c(O)nccc12` [1,5-isoquinoline-diol], the IC50 in assay [1] stood at 379 nM.
On to `O=c1[nH]c2ccccc2c2ccccc12` [6(5H)-phenanthridinone], for which, in assay [2], inhibition was half-maximal at 200 nM (IC50).
